From ChEMBL document CHEMBL3991601, “The target landscape of clinical kinase drugs” (Science, 2017) come the findings set out here.

SMILES strings stand for the structures. Calls of active or inactive are those of the source.

As a reminder, the Kd is a measure of binding affinity in units of concentration.

The target of assay [1] is Actin-related protein 2 (Homo sapiens, UniProt P61160).
The target of assay [2] is Casein kinase I isoform epsilon (Homo sapiens, UniProt P49674).
The target in assay [3] is T1, ATP-dependent RNA helicase DDX1 (Homo sapiens, UniProt Q92499).
T1 sequence (Q92499 whole entry): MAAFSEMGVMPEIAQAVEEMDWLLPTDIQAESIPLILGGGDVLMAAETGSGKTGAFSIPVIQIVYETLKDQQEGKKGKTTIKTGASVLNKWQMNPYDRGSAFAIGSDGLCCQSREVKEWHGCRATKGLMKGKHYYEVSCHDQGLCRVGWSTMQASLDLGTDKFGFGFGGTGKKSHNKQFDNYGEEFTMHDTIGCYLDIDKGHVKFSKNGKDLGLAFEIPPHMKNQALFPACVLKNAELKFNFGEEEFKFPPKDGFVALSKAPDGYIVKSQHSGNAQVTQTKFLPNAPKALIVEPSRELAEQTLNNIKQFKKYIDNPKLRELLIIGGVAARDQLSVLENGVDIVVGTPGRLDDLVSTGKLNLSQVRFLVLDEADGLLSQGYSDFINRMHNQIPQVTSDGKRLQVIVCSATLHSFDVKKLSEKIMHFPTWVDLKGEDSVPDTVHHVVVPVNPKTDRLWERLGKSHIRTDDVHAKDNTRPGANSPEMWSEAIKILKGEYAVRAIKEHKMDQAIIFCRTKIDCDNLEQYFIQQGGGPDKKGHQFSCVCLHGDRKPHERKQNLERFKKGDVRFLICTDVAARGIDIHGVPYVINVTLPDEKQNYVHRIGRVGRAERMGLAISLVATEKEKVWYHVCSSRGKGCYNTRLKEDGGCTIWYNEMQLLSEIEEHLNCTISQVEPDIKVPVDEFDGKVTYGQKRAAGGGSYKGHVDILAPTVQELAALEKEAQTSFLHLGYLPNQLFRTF

The target in assay [4] is Ephrin type-A receptor 2 (Homo sapiens, UniProt P29317).
The target in assay [5] is T2, Interleukin-1 receptor-associated kinase 3 (Homo sapiens, UniProt Q9Y616).
T2 sequence (Q9Y616 whole entry): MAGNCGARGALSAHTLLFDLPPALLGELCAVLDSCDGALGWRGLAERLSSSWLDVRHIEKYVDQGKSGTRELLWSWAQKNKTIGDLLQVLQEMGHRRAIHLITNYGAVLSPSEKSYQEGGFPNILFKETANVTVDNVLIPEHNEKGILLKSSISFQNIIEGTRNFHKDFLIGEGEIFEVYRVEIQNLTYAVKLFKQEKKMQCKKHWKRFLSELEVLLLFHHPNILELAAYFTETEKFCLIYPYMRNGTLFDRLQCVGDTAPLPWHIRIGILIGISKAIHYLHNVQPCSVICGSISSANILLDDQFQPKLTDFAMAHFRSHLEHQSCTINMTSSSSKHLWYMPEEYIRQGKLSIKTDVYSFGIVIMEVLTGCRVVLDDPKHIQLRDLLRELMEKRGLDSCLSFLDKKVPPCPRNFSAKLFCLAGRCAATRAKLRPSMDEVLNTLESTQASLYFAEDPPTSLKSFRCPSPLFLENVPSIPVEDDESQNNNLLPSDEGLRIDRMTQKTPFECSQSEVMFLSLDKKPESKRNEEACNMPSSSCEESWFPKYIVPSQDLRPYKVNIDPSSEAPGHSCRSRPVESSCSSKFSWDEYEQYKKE

Assay [6] deals with Obg-like ATPase 1 (Homo sapiens, UniProt Q9NTK5).
For assay [7], the target named is T3, Phosphatidylinositol 5-phosphate 4-kinase type-2 alpha (Homo sapiens, UniProt P48426).
T3 sequence (P48426 whole entry): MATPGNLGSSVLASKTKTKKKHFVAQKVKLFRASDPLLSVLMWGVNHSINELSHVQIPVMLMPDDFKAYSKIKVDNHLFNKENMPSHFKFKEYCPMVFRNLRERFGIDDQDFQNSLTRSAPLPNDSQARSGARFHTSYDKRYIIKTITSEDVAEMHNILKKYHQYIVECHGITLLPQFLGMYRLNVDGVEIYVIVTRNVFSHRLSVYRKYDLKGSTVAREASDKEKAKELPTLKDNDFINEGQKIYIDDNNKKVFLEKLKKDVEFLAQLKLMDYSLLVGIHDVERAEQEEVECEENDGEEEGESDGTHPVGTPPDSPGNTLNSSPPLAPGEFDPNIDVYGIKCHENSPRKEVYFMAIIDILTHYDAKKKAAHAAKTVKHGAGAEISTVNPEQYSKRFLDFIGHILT

In assay [8] the target is Proto-oncogene tyrosine-protein kinase Src (Homo sapiens, UniProt P12931).
For assay [9], the target named is T4, Signal recognition particle receptor subunit alpha (Homo sapiens, UniProt P08240).
T4 sequence (P08240 whole entry): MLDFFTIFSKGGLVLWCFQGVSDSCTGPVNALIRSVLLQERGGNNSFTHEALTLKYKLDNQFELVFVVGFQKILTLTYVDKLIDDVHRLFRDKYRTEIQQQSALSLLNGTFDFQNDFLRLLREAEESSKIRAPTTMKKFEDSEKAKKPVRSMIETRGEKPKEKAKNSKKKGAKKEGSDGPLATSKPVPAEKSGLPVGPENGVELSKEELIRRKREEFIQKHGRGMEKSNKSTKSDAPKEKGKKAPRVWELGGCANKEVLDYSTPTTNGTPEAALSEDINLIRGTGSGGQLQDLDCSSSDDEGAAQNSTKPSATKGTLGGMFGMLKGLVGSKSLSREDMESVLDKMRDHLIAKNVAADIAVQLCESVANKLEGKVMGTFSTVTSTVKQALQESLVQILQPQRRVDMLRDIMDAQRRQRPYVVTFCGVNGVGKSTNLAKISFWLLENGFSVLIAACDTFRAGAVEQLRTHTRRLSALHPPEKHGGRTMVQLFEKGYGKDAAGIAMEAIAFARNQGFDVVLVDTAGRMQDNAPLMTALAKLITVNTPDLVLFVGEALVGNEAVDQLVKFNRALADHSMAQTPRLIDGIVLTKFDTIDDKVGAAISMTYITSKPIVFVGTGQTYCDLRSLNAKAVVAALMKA

The target of assay [10] is Activated CDC42 kinase 1 (Homo sapiens, UniProt Q07912).
Also: in the data inactive means no Kd found up to 30 µM.

Chain of Ephrin type-A receptor 2 (P29317 whole entry): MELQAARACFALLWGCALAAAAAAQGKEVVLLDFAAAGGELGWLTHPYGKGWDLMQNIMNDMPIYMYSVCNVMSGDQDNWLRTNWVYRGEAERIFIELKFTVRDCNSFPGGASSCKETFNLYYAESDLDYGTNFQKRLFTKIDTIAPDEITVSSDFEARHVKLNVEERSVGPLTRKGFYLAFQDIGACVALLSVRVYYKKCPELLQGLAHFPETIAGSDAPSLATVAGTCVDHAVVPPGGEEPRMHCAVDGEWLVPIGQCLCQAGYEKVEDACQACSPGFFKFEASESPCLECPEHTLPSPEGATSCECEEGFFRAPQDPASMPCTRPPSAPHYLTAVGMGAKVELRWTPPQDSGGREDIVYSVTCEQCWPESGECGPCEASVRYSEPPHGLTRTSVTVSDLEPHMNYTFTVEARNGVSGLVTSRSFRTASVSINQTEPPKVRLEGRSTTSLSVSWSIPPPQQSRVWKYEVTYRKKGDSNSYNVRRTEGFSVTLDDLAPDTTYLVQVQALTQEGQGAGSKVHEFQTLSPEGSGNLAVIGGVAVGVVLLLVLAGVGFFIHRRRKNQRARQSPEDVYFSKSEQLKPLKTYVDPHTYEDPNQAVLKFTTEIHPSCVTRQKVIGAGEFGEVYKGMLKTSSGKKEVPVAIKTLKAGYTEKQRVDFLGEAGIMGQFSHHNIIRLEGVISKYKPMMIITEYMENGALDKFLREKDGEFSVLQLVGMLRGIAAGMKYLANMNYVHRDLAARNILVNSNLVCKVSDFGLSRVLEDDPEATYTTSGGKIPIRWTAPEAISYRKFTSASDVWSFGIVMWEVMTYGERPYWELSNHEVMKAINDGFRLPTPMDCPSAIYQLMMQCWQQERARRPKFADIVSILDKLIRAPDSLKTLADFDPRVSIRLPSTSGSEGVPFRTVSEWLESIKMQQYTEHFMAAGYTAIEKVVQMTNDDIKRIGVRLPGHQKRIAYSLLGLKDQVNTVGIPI
Chain of Proto-oncogene tyrosine-protein kinase Src (P12931 2-536 limits assumed): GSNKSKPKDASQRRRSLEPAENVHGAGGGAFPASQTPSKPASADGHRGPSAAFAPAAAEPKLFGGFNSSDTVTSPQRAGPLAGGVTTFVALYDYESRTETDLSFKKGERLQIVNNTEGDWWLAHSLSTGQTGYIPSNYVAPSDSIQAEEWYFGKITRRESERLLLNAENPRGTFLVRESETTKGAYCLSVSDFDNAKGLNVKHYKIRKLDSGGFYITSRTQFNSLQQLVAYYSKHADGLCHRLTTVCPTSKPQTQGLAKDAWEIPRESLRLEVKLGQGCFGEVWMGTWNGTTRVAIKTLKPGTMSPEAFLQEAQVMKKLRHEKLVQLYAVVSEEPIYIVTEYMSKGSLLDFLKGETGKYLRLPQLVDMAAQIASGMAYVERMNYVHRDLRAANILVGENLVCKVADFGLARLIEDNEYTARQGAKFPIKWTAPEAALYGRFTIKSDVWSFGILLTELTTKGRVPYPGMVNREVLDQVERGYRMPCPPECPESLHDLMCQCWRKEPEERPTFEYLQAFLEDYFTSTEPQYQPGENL
Chain of Activated CDC42 kinase 1 (Q07912 whole entry): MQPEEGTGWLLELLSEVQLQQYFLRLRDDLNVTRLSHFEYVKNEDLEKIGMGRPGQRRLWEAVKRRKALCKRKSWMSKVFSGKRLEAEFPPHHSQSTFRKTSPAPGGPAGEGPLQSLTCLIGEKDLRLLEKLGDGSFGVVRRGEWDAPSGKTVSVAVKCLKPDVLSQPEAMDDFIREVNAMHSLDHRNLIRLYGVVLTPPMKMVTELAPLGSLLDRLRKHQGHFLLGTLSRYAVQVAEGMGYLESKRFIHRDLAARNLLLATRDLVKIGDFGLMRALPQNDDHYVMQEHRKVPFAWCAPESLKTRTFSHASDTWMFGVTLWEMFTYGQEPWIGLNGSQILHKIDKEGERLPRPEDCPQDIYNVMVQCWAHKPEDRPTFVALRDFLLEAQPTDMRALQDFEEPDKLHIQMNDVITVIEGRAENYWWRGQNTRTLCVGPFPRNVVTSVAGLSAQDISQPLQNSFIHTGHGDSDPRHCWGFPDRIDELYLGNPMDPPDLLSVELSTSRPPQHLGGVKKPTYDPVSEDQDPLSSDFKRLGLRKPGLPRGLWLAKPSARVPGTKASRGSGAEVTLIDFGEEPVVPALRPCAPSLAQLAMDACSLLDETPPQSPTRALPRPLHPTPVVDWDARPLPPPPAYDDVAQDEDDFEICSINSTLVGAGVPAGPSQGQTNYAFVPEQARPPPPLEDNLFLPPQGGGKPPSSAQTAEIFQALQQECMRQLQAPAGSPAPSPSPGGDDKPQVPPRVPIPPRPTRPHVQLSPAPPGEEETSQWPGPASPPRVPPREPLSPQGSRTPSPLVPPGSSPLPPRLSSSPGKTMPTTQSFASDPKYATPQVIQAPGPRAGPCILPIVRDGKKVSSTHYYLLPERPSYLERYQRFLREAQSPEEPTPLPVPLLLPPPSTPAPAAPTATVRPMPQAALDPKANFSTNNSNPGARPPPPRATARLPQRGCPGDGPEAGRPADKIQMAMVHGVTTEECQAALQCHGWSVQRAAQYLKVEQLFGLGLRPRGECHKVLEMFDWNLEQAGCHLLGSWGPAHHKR
Chain of Obg-like ATPase 1 (Q9NTK5 whole entry, looked up): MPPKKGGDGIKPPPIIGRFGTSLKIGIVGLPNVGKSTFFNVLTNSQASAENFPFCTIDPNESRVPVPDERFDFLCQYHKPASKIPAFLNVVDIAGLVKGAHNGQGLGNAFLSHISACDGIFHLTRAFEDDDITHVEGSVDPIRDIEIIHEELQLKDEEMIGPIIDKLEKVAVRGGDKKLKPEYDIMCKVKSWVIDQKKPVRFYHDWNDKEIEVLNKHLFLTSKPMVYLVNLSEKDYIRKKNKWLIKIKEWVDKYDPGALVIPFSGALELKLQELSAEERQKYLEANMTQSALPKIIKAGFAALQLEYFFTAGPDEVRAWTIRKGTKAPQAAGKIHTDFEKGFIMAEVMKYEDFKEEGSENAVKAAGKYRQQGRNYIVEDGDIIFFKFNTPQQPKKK
Chain of Casein kinase I isoform epsilon (P49674 whole entry, canonical isoform): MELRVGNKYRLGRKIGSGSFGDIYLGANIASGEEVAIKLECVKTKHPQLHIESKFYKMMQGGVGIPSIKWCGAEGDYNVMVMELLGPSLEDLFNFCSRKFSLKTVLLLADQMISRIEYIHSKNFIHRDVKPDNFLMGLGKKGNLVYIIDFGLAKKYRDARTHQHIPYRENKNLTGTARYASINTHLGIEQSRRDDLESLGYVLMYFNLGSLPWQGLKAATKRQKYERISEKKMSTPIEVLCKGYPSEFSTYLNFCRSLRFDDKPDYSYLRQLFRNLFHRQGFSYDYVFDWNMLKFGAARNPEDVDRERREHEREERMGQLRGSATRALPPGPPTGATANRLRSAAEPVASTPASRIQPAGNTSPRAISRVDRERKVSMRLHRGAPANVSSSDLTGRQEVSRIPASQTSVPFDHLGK

`Cc1cc(-c2cc(OC(=O)c3ccccc3)ccc2Cl)cc2nnc(Nc3ccc(OCCN4CCCC4)cc3)nc12` [TG100-801]: the Kd in [1] is > 30 µM (inactive); in assay [2], > 30 µM (inactive); in assay [3] it was > 30 µM (inactive); in [4] it was 1.19 µM (active); in [5] it was > 30 µM (inactive); in assay [6] it was > 30 µM (inactive). Further, the Kd in assay [7], in assay [8], in assay [9] and in assay [10] was > 30 µM (inactive) in each case.

Regarding `c1cc(OCCN2CCCCC2)cc(-c2n[nH]c3ccc(-c4nc[nH]n4)cc23)c1` [CC-401], the Kd in assay [1] is > 30 µM (inactive); in [2], 0.285 µM (active); in [3], > 30 µM (inactive); in [4], > 30 µM (inactive); in assay [5], > 30 µM (inactive); in assay [6], > 30 µM (inactive). The Kd in assay [7], in assay [8], in assay [9] and in [10] was > 30 µM (inactive) in each case.

Turning to `NC(=O)c1ccc(N(C(N)=O)c2c(F)cccc2F)nc1-c1ccc(F)cc1F` [VX-702], the Kd in [1], in assay [2], in assay [3], in [4], in [5] and in assay [6] was > 30 µM (inactive) in each case. The Kd in assay [7], in [8], in [9] and in assay [10] was > 30 µM (inactive) each time.

Take `COc1cc2ncnc(Nc3ccc(O)cc3)c2cc1OC` [WHI-P131]: the Kd in assay [1], in assay [2], in assay [3], in [4], in assay [5] and in [6] was > 30 µM (inactive) in each case. Further, the Kd in assay [7], in assay [8], in assay [9] and in assay [10] was > 30 µM (inactive) throughout.

For `S=C(NCc1ccc2c(c1)OCO2)N1CCN(c2ncnc3c2oc2ccccc23)CC1` [AMUVATINIB], the Kd in assay [1], in assay [2], in assay [3], in [4], in assay [5] and in [6] was > 30 µM (inactive) throughout. The Kd in [7], in assay [8], in [9] and in [10] was > 30 µM (inactive) throughout.

Turning to `Cc1ccc(C(=O)Nc2ccc(Oc3cc4cnn(C)c4cc3-c3cn[nH]c3)c(F)c2)c(=O)n1-c1ccc(F)cc1` [MERESTINIB], the Kd in [1], in assay [2], in assay [3], in assay [4], in assay [5] and in assay [6] was > 30 µM (inactive) in each case. For the same compound, the Kd in assay [7], in assay [8], in assay [9] and in [10] was > 30 µM (inactive) in each case.

For `C=CC(=O)Nc1cc(Nc2nccc(-c3cn(C)c4ccccc34)n2)c(OC)cc1N(C)CCN(C)C` [OSIMERTINIB], the Kd in assay [1], in assay [2], in [3], in assay [4], in [5] and in assay [6] was > 30 µM (inactive) each time. The Kd in assay [7], in assay [8], in [9] and in assay [10] was > 30 µM (inactive) each time.

For `COc1cc(Nc2ncc(F)c(Nc3ccc4c(n3)N(COP(=O)(O)O)C(=O)C(C)(C)O4)n2)cc(OC)c1OC` [FOSTAMATINIB], the Kd was > 30 µM (inactive) in assay [1]; > 30 µM (inactive) in [2]; > 30 µM (inactive) in assay [3]; > 30 µM (inactive) in [4]; 1.29 µM (active) in assay [5]; > 30 µM (inactive) in assay [6]. For the same compound, the Kd in [7], in assay [8], in assay [9] and in assay [10] was > 30 µM (inactive) in each case.

With `N#CCNC(=O)c1ccc(-c2ccnc(Nc3ccc(N4CCOCC4)cc3)n2)cc1` [MOMELOTINIB], the Kd in assay [1], in [2], in assay [3], in assay [4], in assay [5] and in assay [6] was > 30 µM (inactive) in each case. Further, the Kd in assay [7], in assay [8], in assay [9] and in assay [10] was > 30 µM (inactive) each time.

In the case of `NC[C@@](O)(c1ccc(Cl)cc1)c1ccc(-c2cn[nH]c2)cc1` [AT-13148], the Kd in [1], in [2], in assay [3], in assay [4], in assay [5] and in assay [6] was > 30 µM (inactive) throughout. Further, the Kd in assay [7], in assay [8], in assay [9] and in assay [10] was > 30 µM (inactive) each time.

For the compound `O=S(=O)(c1cccc2c(O)nccc12)N1CCCNCC1` [HYDROXYFASUDIL], the Kd in assay [1], in assay [2], in [3], in assay [4], in [5] and in assay [6] was > 30 µM (inactive) in each case. The Kd in assay [7], in assay [8], in assay [9] and in assay [10] was > 30 µM (inactive) throughout.
